{"source": "patent US20250332185A1", "about": "“Use of a New Therapeutic Combination to Treat Chronic Venous Insufficiency” (KÉRI PHARMA HUNGARY KFT., priority 2021, published 2025)", "key": {"[1]": {"system": "patients with venous circulatory disorders, CEAP stage 2 and CEAP stage 3", "test": "Observation test 1: CIVIQ-20 quality-of-life score after 12 weeks of therapy", "type": "in vivo, human", "details": "for CIVIQ change (score): Visit 1 score - Visit 2 score (negative = improvement), 12 weeks; for CIVIQ (score), Visit 2: after 12 weeks of therapy; for CIVIQ (score), Visit 2 / CIVIQ (score), Visit 1: mean ± SD; for CIVIQ (score), Visit 1: baseline before treatment", "method": "The study analysed data from a total of 90 people retrospectively.\nThe analysis was based on consecutive patient data from outpatients who met the inclusion criteria. All patients had venous circulatory disorders, with severity of disease corresponding to CEAP stage 2 and CEAP stage 3. The male:female ratio in the population analysed was 1:2\nIn total, data from four different patient groups were examined: • Group 1: patients taking 1000 mg of diosmin daily (n=45)· • 30 subjects had homocysteine levels below the risk threshold (<12.5 μmol/L normal homocysteinemia group)· • 15 subjects had homocysteine levels above the risk threshold (>12.5 μmol/L hyperhomocysteinemia group) • Group 2: patients taking a daily combination of 1000 mg diosmin+6 mg folic acid+20 mg vitamin B6 (diosmin plus) (45 patients)· • 30 subjects had homocysteine levels below the risk threshold (<12.5 μmol/L normal homocysteinemia group)· • 15 subjects had homocysteine levels above the risk threshold (>12.5 μmol/L hyperhomocysteinemia group)\nThe observation period was 12 weeks, during which time patients took the prescribed medication continuously. Before starting the medication treatment, a physical examination (to determine the CEAP stage of chronic venous insufficiency) and homocysteine level determination were performed and a CIVIQ-20 questionnaire was filled out. At the end of the 12-week follow-up period, the tests were repeated. For continuous variables, normality testing was performed. Variables with a normal distribution (age, CIVIQ score at visits 1 and 2) were characterised by the mean+SD, while variables with a non-normal distribution (homocysteine level at visits 1 and 2) were characterised by the median (25; 75 percentile). Differences in the values of variables with normal distribution by subgroup was tested by t test, and difference in the values of variables with non-normal distribution by subgroup was tested by chi-squared test.\n(§1) The factors determining the increase in CIVIQ score were analysed using simple and complex linear regression. In the composite model, age and gender were included as significant regressors. […] The fit of the final composite linear model was characterised using the Ramsey RESET test and the Breusch-Pagan/Cook-Weisberg test. Model fit is indicated by a value of p>0.05. The composite model was also stratified according to baseline homocysteine level (normal vs. low), to investigate the interaction between baseline homocysteine level and the therapy used."}, "homocysteine level [2]": {"system": "homocysteine level", "test": "Observation test 1: homocysteine level determination", "type": "in vivo, human", "details": "median (25; 75 percentile); for homocysteine, Visit 2: after 12 weeks of therapy; for homocysteine, Visit 1: baseline before treatment, CEAP 2-3", "method": "The analysis was based on consecutive patient data from outpatients who met the inclusion criteria. All patients had venous circulatory disorders, with severity of disease corresponding to CEAP stage 2 and CEAP stage 3. The male:female ratio in the population analysed was 1:2 In total, data from four different patient groups were examined: • Group 1: patients taking 1000 mg of diosmin daily (n=45)· • 30 subjects had homocysteine levels below the risk threshold (<12.5 μmol/L normal homocysteinemia group)· • 15 subjects had homocysteine levels above the risk threshold (>12.5 μmol/L hyperhomocysteinemia group) • Group 2: patients taking a daily combination of 1000 mg diosmin+6 mg folic acid+20 mg vitamin B6 (diosmin plus) (45 patients)· • 30 subjects had homocysteine levels below the risk threshold (<12.5 μmol/L normal homocysteinemia group)· • 15 subjects had homocysteine levels above the risk threshold (>12.5 μmol/L hyperhomocysteinemia group) The observation period was 12 weeks, during which time patients took the prescribed medication continuously. Before starting the medication treatment, a physical examination (to determine the CEAP stage of chronic venous insufficiency) and homocysteine level determination were performed and a CIVIQ-20 questionnaire was filled out. At the end of the 12-week follow-up period, the tests were repeated. For continuous variables, normality testing was performed. Variables with a normal distribution (age, CIVIQ score at visits 1 and 2) were characterised by the mean+SD, while variables with a non-normal distribution (homocysteine level at visits 1 and 2) were characterised by the median (25; 75 percentile). Differences in the values of variables with normal distribution by subgroup was tested by t test, and difference in the values of variables with non-normal distribution by subgroup was tested by chi-squared test."}, "homocysteine level [3]": {"system": "homocysteine level", "test": "Observation test 2: homocysteine level determination", "type": "in vivo, human", "details": "median (25; 75 percentile); for homocysteine, Visit 2: after 12 weeks of therapy; for homocysteine, Visit 1: baseline before treatment, CEAP 6", "method": "Data from a total of 60 people were analysed retrospectively. Patients attending outpatient care consecutively who met the inclusion criteria were included in the retrospective analysis. Patients all had venous circulatory disorders with a severity of disease corresponding to CEAP stage 6. The male:female ratio in the analysed population was 1:2. The data of a total of four different patient groups were analysed as follows. • Group 1: patients taking 1000 mg of diosmin daily (n=30) • 15 patients had homocysteine levels below the risk threshold (<12.5 μmol/L, normal homocysteinemia group). • 15 patients had homocysteine levels above the risk threshold (>12.5 μmol/L hyperhomocysteinemia group) • Group 2: patients taking a daily combination of 1000 mg diosmin+3 mg folic acid+20 mg vitamin B6 (diosmin plus) (30 patients) • 15 patients had homocysteine levels below the risk threshold (<12.5 μmol/L normal homocysteinemia group). • 15 patients had homocysteine levels above the risk threshold (>12.5 μmol/L hyperhomocysteinemia group) • Group 3: patients taking a combination of 3 mg folic acid+20 mg vitamin B6 (diosmin plus) daily (30 patients) • 15 patients had homocysteine levels below the risk threshold (<12.5 μmol/L normal homocysteinemia group). • 15 patients had homocysteine levels above the risk threshold (>12.5 μmol/L hyperhomocysteinemia group) The observation period was 12 weeks, during which time patients took the prescribed medication continuously. Before starting the medication treatment, a physical examination (to determine the CEAP stage of chronic venous insufficiency) and homocysteine level determination were performed. The area of the leg ulcer developed based on the venous circulatory disorder was also determined. At the end of the 12-week observation period, the tests were repeated. For continuous variables, normality tests were performed. Variables with a normal distribution (age) were characterised by the mean+SD, variables with a non-normal distribution (homocysteine level at visits 1 and 2, leg ulcer area at visits 1 and 2) were characterised by the median (25; 75 percentile). For comparisons between two subgroups, the difference in the values of variables with normal distribution by subgroup was tested by t test, and the difference in the values of variables with non-normal distribution by subgroup was tested by chi-squared test."}, "[4]": {"system": "patients with venous circulatory disorders, CEAP stage 6 (leg ulcer)", "test": "Observation test 2: area of leg ulcer after 12 weeks of therapy", "type": "in vivo, human", "details": "median (25; 75 percentile); for change in ulcer size: 1st visit - 2nd visit (positive = reduction), 12 weeks; for ulcer size, Visit 2: after 12 weeks of therapy; for ulcer size, Visit 1: baseline before treatment", "method": "Data from a total of 60 people were analysed retrospectively. Patients attending outpatient care consecutively who met the inclusion criteria were included in the retrospective analysis. Patients all had venous circulatory disorders with a severity of disease corresponding to CEAP stage 6. The male:female ratio in the analysed population was 1:2. The data of a total of four different patient groups were analysed as follows. • Group 1: patients taking 1000 mg of diosmin daily (n=30) • 15 patients had homocysteine levels below the risk threshold (<12.5 μmol/L, normal homocysteinemia group). • 15 patients had homocysteine levels above the risk threshold (>12.5 μmol/L hyperhomocysteinemia group) • Group 2: patients taking a daily combination of 1000 mg diosmin+3 mg folic acid+20 mg vitamin B6 (diosmin plus) (30 patients) • 15 patients had homocysteine levels below the risk threshold (<12.5 μmol/L normal homocysteinemia group). • 15 patients had homocysteine levels above the risk threshold (>12.5 μmol/L hyperhomocysteinemia group) • Group 3: patients taking a combination of 3 mg folic acid+20 mg vitamin B6 (diosmin plus) daily (30 patients) • 15 patients had homocysteine levels below the risk threshold (<12.5 μmol/L normal homocysteinemia group). • 15 patients had homocysteine levels above the risk threshold (>12.5 μmol/L hyperhomocysteinemia group)\nThe observation period was 12 weeks, during which time patients took the prescribed medication continuously. Before starting the medication treatment, a physical examination (to determine the CEAP stage of chronic venous insufficiency) and homocysteine level determination were performed. The area of the leg ulcer developed based on the venous circulatory disorder was also determined.\nAt the end of the 12-week observation period, the tests were repeated. For continuous variables, normality tests were performed. Variables with a normal distribution (age) were characterised by the mean+SD, variables with a non-normal distribution (homocysteine level at visits 1 and 2, leg ulcer area at visits 1 and 2) were characterised by the median (25; 75 percentile). For comparisons between two subgroups, the difference in the values of variables with normal distribution by subgroup was tested by t test, and the difference in the values of variables with non-normal distribution by subgroup was tested by chi-squared test.\nas §1, with “effectiveness of the therapy was characterised by the change in the area of the leg ulcer. Factors” for “factors”, “change” for “increase”, “ulcer size” for “CIVIQ score”, “were” for “were included as”"}, "[5]": {"system": "fasting homocysteine levels in healthy young women", "details": "healthy young women with normal homocysteine; folic acid 400 micrograms/day, vitamin B6 2 mg/day; daily for four weeks; cited from earlier work"}, "[6]": {"system": "patients with venous ulcers", "details": "cited from earlier work"}, "[7]": {"system": "homocysteine levels in untreated hypertensive patients", "details": "cited from earlier work; for homocysteine levels increased by: end of 4.5-year treatment"}, "[8]": {"system": "systolic blood pressure in untreated hypertensive patients", "details": "interval in brackets, cited from earlier work"}, "[9]": {"details": "hyperhomocysteine group (>12.5 μmol/L)"}, "[10]": {"details": "normal homocysteine group (<12.5 μmol/L)"}}, "note": "Like-named read-outs stand apart in the source and are kept apart here.", "data": [{"compound": "COc1ccc(-c2cc(=O)c3c(O)cc(O[C@@H]4O[C@H](CO[C@@H]5O[C@@H](C)[C@H](O)[C@@H](O)[C@H]5O)[C@@H](O)[C@H](O)[C@H]4O)cc3o2)cc1O", "note": "[diosmin]", "values": [{"measurement": "CIVIQ change (score)", "setting": "[1]; hyperhomocysteine group", "result": "−14.56 ± 15.86", "unit": "score"}, {"measurement": "CIVIQ change (score)", "setting": "[1]; normal homocysteine group", "result": "−12.09 ± 1.23", "unit": "score"}, {"measurement": "CIVIQ (score), Visit 2", "setting": "[1]; hyperhomocysteine group", "result": "79.71 ± 10.81", "unit": "score"}, {"measurement": "CIVIQ (score), Visit 2", "setting": "[1]; normal homocysteine group", "result": "78.44 ± 8.75", "unit": "score"}, {"measurement": "CIVIQ (score), Visit 1", "setting": "[1]; hyperhomocysteine group", "result": "65.14 ± 8.45", "unit": "score"}, {"measurement": "CIVIQ (score), Visit 1", "setting": "[1]; normal homocysteine group", "result": "66.09 ± 9.91", "unit": "score"}, {"measurement": "homocysteine, Visit 2", "setting": "homocysteine level [2]; hyperhomocysteine group", "result": "11.69 (11.52; 11.91) μmol/L"}, {"measurement": "homocysteine, Visit 2", "setting": "homocysteine level [2]; normal homocysteine group", "result": "7.39 (7.65; 7.80) μmol/L"}, {"measurement": "homocysteine, Visit 1", "setting": "homocysteine level [2]; [9]", "result": "14.74 (13.24; 15.79) μmol/L"}, {"measurement": "homocysteine, Visit 1", "setting": "homocysteine level [2]; [10]", "result": "8.00 (7.23; 8.83) μmol/L"}, {"measurement": "homocysteine, Visit 2", "setting": "homocysteine level [3]; hyperhomocysteine group", "result": "19.13 (18.75; 19.42) μmol/L"}, {"measurement": "homocysteine, Visit 2", "setting": "homocysteine level [3]; normal homocysteine group", "result": "10.89 (10.21; 11.17) μmol/L"}, {"measurement": "homocysteine, Visit 1", "setting": "homocysteine level [3]; [9]", "result": "20.73 (20.16; 21.21) μmol/L"}, {"measurement": "homocysteine, Visit 1", "setting": "homocysteine level [3]; [10]", "result": "11.82 (11.59; 12.24) μmol/L"}, {"measurement": "change in ulcer size", "setting": "[4]; hyperhomocysteine group", "result": "2.61 (2.01; 3.29) cm^2"}, {"measurement": "change in ulcer size", "setting": "[4]; normal homocysteine group", "result": "1.11 (0.64; 2.26) cm^2"}, {"measurement": "ulcer size, Visit 2", "setting": "[4]; hyperhomocysteine group", "result": "10.56 (10.28; 10.91) cm^2"}, {"measurement": "ulcer size, Visit 2", "setting": "[4]; normal homocysteine group", "result": "7.09 (6.12; 7.67) cm^2"}, {"measurement": "ulcer size, Visit 1", "setting": "[4]; hyperhomocysteine group", "result": "13.62 (12.44; 13.85) cm^2"}, {"measurement": "ulcer size, Visit 1", "setting": "[4]; normal homocysteine group", "result": "8.11 (7.07; 8.73) cm^2"}]}, {"compound": "Cc1ncc(CO)c(CO)c1O.Cl", "note": "[Vitamin B6, vitamin B6]", "values": [{"measurement": "reduction of homocysteine levels", "setting": "[5]", "result": "no effect"}]}, {"compound": "Nc1nc2ncc(CNc3ccc(C(=O)N[C@@H](CCC(=O)O)C(=O)O)cc3)nc2c(=O)[nH]1", "note": "[folic acid]", "values": [{"measurement": "reduction of homocysteine levels", "setting": "[5]", "result": 11.5, "unit": "%"}, {"measurement": "ulcer healing", "setting": "[6]; chronic venous ulcer disease with hyperhomocysteinemia", "result": "accelerated ulcer healing"}, {"measurement": "cure rate", "setting": "[6]; group A: hyperhomocysteinemia, folic acid 1.2 mg/day for 12 months plus basic treatment, group B basic treatment only 63·33%, P<0.05", "result": 78.75, "unit": "%"}]}, {"compound": "CCOC(=O)[C@H](CCc1ccccc1)N[C@@H](C)C(=O)N1CCC[C@H]1C(=O)O", "note": "[enalapril]", "values": [{"measurement": "homocysteine levels increased by", "setting": "[7]; baseline homocysteine <10 μmol/L", "result": 1.7, "unit": "µmol/L"}, {"measurement": "homocysteine levels increased by", "setting": "[7]; baseline homocysteine between 10 and 15 μmol/L", "result": 1.1, "unit": "µmol/L"}, {"measurement": "homocysteine levels decreased by", "setting": "[7]; baseline homocysteine ≥15 μmol/L, median 4.5 years, 10 mg enalapril, 0.8 mg folic acid daily", "result": 2.4, "unit": "µmol/L"}, {"measurement": "Reduction in systolic blood pressure", "setting": "[8]; baseline homocysteine 10-<15 versus reference category <10", "result": "−0.77 (−1.53; −0.01) mm Hg"}, {"measurement": "Reduction in systolic blood pressure", "setting": "[8]; baseline homocysteine ≥15 versus reference category <10", "result": "−1.70 (−2.68; −0.72) mm Hg"}]}]}
